How the values were obtained:
plants = conditions: previous studies; cited from earlier work
Arabidopsis thaliana = assay: Growth of plants on plates containing isoxaben; type: in vivo; conditions: 2 nM isoxaben in plates
Method: Studies with a plant (Arabidopsis thaliana) expressing a CESA-1 with a A903V mutation (“qxr” or “ags”) have shown significant reorganization of the mutant cell wall. Feedback between the gene mutation and cell wall structure was determined by FTIR analysis of the polysaccharide fingerprint region. The following conclusions were ascertained; firstly, the qxr mutant has aberrant root hair formation, which can be observed using light microscopy and have been described for cell wall gene deletion alleles. The highly elongated cell shape of root hairs has been used as model to define molecular players in cell elongation and a plausible explanation for the altered root hair phenotype is consistent with a defect in cell wall structure. […] Next, the inventors explored whether treating qxr mutants with the cellulose inhibitor isoxaben at minute doses induced a synergistic effect.

Arabidopsis ixr mutants = conditions: cited from earlier work

CCC(C)(CC)c1cc(NC(=O)c2c(OC)cccc2OC)on1 [isoxaben, N-(3-[1-ethyl-1-methylpropyl]-5-isoxazolyl)-2,6,dimethoxybenzamide]
lethal dose (plants): 5 nM | effect on qxr mutant plants (Arabidopsis thaliana; qxr (CESA-1 A903V)): dramatically swollen organs | effect on wild type plants (swollen organs) (Arabidopsis thaliana; wild type): did not | resistance of mutants to the herbicide (Arabidopsis ixr mutants; ixr1-1 and ixr1-2 mutations): high level of resistance | drug tolerance of ixr1-1 relative to wild type (Arabidopsis ixr mutants; ixr1-1 homozygotes): approximately 300 times | resistance of mutants to the cellulose synthesis inhibitor (Arabidopsis ixr mutants; ixr1-2 and ixr2-1, forward chemical genetics screen): conferring resistance
